Data reported in US20230172867A1, “A METHOD FOR TREATING CANCER WITH AN ORAL DOSAGE FORM OF AN FGFR4 INHIBITOR” (Eisai R&D Management Co., Ltd., priority 2020, published 2023).
Where two headings read alike, the source gives them in different places.

Assay: Pharmacokinetic measurements of H3B-6527 capsules in patients (trial NCT02834780), plasma LC-MS/MS
Format: in vivo, human
Details: human, plasma, oral; for AUC: read-out: AUC, geometric mean (CV%); for Cmax: read-out: Cmax, geometric mean (CV%)
From the text: A description of the first in human clinical trial for H3B-6527 can be found at the ClinicalTrials.gov by searching for trial identifier NCT02834780. In summary, the trial included a study population having the following characteristics: Adult patients ≥18 years old with advanced HCC or ICC; Progression after at least one prior therapy; ECOG score of 0 or 1; Well compensated liver function; FGF19-positive (dose expansion phase only); Excluded if patients have significant active infections [except hepatitis B virus (HBV) and hepatitis C virus (HCV)], gastric or esophageal varices, or previous FGF19-FGFR4 targeted therapy.
Blood samples are collected at the planned time points from each patient and centrifuged. The plasma portion of each sample is then transferred to a K2EDTA tube, which is then shipped to a bioanalytical lab for concentration measurement using LC-MS/MS. The concentration data are then analyzed using Phoenix® WinNonlin software to obtain PK parameters. The obtained PK parameters are further summarized using analytical software.
Drug Administration and Dosage for Dose Escalation: H3B-6527 was administered orally QD or BID on a 21-day cycle. […] Patients in dose escalation phase were treated regardless of FGF19 status. Response determined by RECIST 1.1/modified RECIST every 6 weeks
Further collection and collation of the PK results of the trial of Example 2 at a later point in time are reflected in the following Table 5:
The results of further analysis of the PK data of the trial of Example 2 with the actual date and time of the dose administration and PK sampling after QC, an update from the results of a preliminary analysis with the nominal (i.e. planned) dosing/PK sampling date/time presented in Example 3, are reflected in the following Table 6. In this example the number of patients from which each PK parameter was calculated is shown, rather than the total number of patients receiving a particular dose and regimen as in Table 5.

[1] = 600 mg, 600 mg QD, fed, Day 8, Table 6, actual times after QC
[2] = 700 mg, 700 mg BID, fed, Day 1, Table 6, actual times after QC
[3] = 700 mg, 700 mg BID, fed, Day 8, Table 6, actual times after QC
[4] = 1000 mg, 1000 mg QD, fasted, Day 1, Table 6, actual times after QC
[5] = 1000 mg, 1000 mg QD, fasted, Day 8, Table 6, actual times after QC
[6] = 1000 mg, 1000 mg QD, fed, Day 1, Table 6, actual times after QC
[7] = 1000 mg, 1000 mg QD, fed, Day 8, Table 6, actual times after QC
[8] = 1400 mg, 1400 mg QD, fasted, Day 1, Table 6, actual times after QC
[9] = 1400 mg, 1400 mg QD, fasted, Day 8, Table 6, actual times after QC
[10] = 1400 mg, 1400 mg QD, fed, Day 1, Table 6, actual times after QC
[11] = 1400 mg, 1400 mg QD, fed, Day 8, Table 6, actual times after QC
[12] = 2000 mg, 2000 mg QD, fed, Day 1, Table 6, actual times after QC
[13] = 2000 mg, 2000 mg QD, fed, Day 8, Table 6, actual times after QC

C=CC(=O)Nc1cc(N2CCN(CC)CC2)ccc1Nc1cc(N(C)C(=O)Nc2c(Cl)c(OC)cc(OC)c2Cl)ncn1 [H3B-6527, N-(2-((6-(3-(2,6-dichloro-3,5-dimethoxyphenyl)-1-methylureido)pyrimidin-4-yl)amino)-5-(4-ethylpiperazin-1-yl)phenyl)acrylamide]
Tmax (600 mg, 600 mg QD, fed, Day 8, Table 5, nominal times, read-out: Tmax, median (min-max)): 4.52 h
AUC [1]: 501 ng·h/mL
Cmax [1]: 99.6 ng/mL
half-life (600 mg, 600 mg QD, fed, Day 8, Table 6, actual times after QC, read-out: Half-life, geometric mean (CV%) (converted)): 5.88 h
Tmax (600 mg, 600 mg QD, fed, Day 8, Table 6, actual times after QC, read-out: Tmax, median (min-max)): 4.52 h
Cmax (700 mg, 700 mg BID, fed, Day 1, Table 5, nominal times): 163 ng/mL
half-life (700 mg, 700 mg BID, fed, Day 1, Table 5, nominal times, read-out: Half-life, geometric mean (CV%) (converted)): 2.1 h
Tmax (700 mg, 700 mg BID, fed, Day 1, Table 5, nominal times, read-out: Tmax, median (min-max)): 2.02 h
AUC [2]: 591 ng·h/mL
Cmax [2]: 163 ng/mL
half-life (700 mg, 700 mg BID, fed, Day 1, Table 6, actual times after QC, read-out: Half-life, geometric mean (CV%) (converted)): 2.13 h
Tmax (700 mg, 700 mg BID, fed, Day 1, Table 6, actual times after QC, read-out: Tmax, median (min-max)): 2.02 h
Cmax (700 mg, 700 mg BID, fed, Day 8, Table 5, nominal times): 167 ng/mL
half-life (700 mg, 700 mg BID, fed, Day 8, Table 5, nominal times, read-out: Half-life, geometric mean (CV%) (converted)): 2.2 h
Tmax (700 mg, 700 mg BID, fed, Day 8, Table 5, nominal times, read-out: Tmax, median (min-max)): 4.12 h
AUC [3]: 639 ng·h/mL
Cmax [3]: 167 ng/mL
half-life (700 mg, 700 mg BID, fed, Day 8, Table 6, actual times after QC, read-out: Half-life, geometric mean (CV%) (converted)): 2.18 h
Tmax (700 mg, 700 mg BID, fed, Day 8, Table 6, actual times after QC, read-out: Tmax, median (min-max)): 4.12 h
Cmax (1000 mg, 1000 mg QD, fasted, Day 1, Table 5, nominal times): 146 ng/mL
half-life (1000 mg, 1000 mg QD, fasted, Day 1, Table 5, nominal times, read-out: Half-life, geometric mean (CV%) (converted)): 4.5 h
Tmax (1000 mg, 1000 mg QD, fasted, Day 1, Table 5, nominal times, read-out: Tmax, median (min-max)): 2.01 h
AUC [4]: 854 ng·h/mL
Cmax [4]: 225 ng/mL
half-life (1000 mg, 1000 mg QD, fasted, Day 1, Table 6, actual times after QC, read-out: Half-life, geometric mean (CV%) (converted)): 4.48 h
Tmax (1000 mg, 1000 mg QD, fasted, Day 1, Table 6, actual times after QC, read-out: Tmax, median (min-max)): 2.02 h
Cmax (1000 mg, 1000 mg QD, fasted, Day 8, Table 5, nominal times): 197 ng/mL
half-life (1000 mg, 1000 mg QD, fasted, Day 8, Table 5, nominal times, read-out: Half-life, geometric mean (CV%) (converted)): 4.5 h
Tmax (1000 mg, 1000 mg QD, fasted, Day 8, Table 5, nominal times, read-out: Tmax, median (min-max)): 2.02 h
AUC [5]: 839 ng·h/mL
Cmax [5]: 187 ng/mL
half-life (1000 mg, 1000 mg QD, fasted, Day 8, Table 6, actual times after QC, read-out: Half-life, geometric mean (CV%) (converted)): 4.84 h
Tmax (1000 mg, 1000 mg QD, fasted, Day 8, Table 6, actual times after QC, read-out: Tmax, median (min-max)): 2 h
Cmax (1000 mg, 1000 mg QD, fed, Day 1, Table 5, nominal times): 188 ng/mL
half-life (1000 mg, 1000 mg QD, fed, Day 1, Table 5, nominal times, read-out: Half-life, geometric mean (CV%) (converted)): 4 h
Tmax (1000 mg, 1000 mg QD, fed, Day 1, Table 5, nominal times, read-out: Tmax, median (min-max)): 5.05 h
AUC [6]: 1120 ng·h/mL
Cmax [6]: 182 ng/mL
half-life (1000 mg, 1000 mg QD, fed, Day 1, Table 6, actual times after QC, read-out: Half-life, geometric mean (CV%) (converted)): 3.94 h
Tmax (1000 mg, 1000 mg QD, fed, Day 1, Table 6, actual times after QC, read-out: Tmax, median (min-max)): 6 h
Cmax (1000 mg, 1000 mg QD, fed, Day 8, Table 5, nominal times): 199 ng/mL
half-life (1000 mg, 1000 mg QD, fed, Day 8, Table 5, nominal times, read-out: Half-life, geometric mean (CV%) (converted)): 4.2 h
Tmax (1000 mg, 1000 mg QD, fed, Day 8, Table 5, nominal times, read-out: Tmax, median (min-max)): 4.08 h
AUC [7]: 796 ng·h/mL
Cmax [7]: 177 ng/mL
half-life (1000 mg, 1000 mg QD, fed, Day 8, Table 6, actual times after QC, read-out: Half-life, geometric mean (CV%) (converted)): 6.16 h
Tmax (1000 mg, 1000 mg QD, fed, Day 8, Table 6, actual times after QC, read-out: Tmax, median (min-max)): 2 h
half-life (1000 mg, following administration of 1000 mg (fasted), read-out: mean terminal half-life): 4 to 5 h
Cmax (1400 mg, 1400 mg QD, fasted, Day 1, Table 5, nominal times): 136 ng/mL
half-life (1400 mg, 1400 mg QD, fasted, Day 1, Table 5, nominal times, read-out: Half-life, geometric mean (CV%) (converted)): 5.3 h
Tmax (1400 mg, 1400 mg QD, fasted, Day 1, Table 5, nominal times, read-out: Tmax, median (min-max)): 1 h
AUC [8]: 400 ng·h/mL
Cmax [8]: 136 ng/mL
half-life (1400 mg, 1400 mg QD, fasted, Day 1, Table 6, actual times after QC, read-out: Half-life, geometric mean (CV%) (converted)): 6.13 h
Tmax (1400 mg, 1400 mg QD, fasted, Day 1, Table 6, actual times after QC, read-out: Tmax, median (min-max)): 1 h
Cmax (1400 mg, 1400 mg QD, fasted, Day 8, Table 5, nominal times): 362 ng/mL
half-life (1400 mg, 1400 mg QD, fasted, Day 8, Table 5, nominal times, read-out: Half-life, geometric mean (CV%) (converted)): 4.9 h
Tmax (1400 mg, 1400 mg QD, fasted, Day 8, Table 5, nominal times, read-out: Tmax, median (min-max)): 2.1 h
AUC [9]: 1260 ng·h/mL
Cmax [9]: 362 ng/mL
half-life (1400 mg, 1400 mg QD, fasted, Day 8, Table 6, actual times after QC, read-out: Half-life, geometric mean (CV%) (converted)): 4.56 h
Tmax (1400 mg, 1400 mg QD, fasted, Day 8, Table 6, actual times after QC, read-out: Tmax, median (min-max)): 2.1 h
Cmax (1400 mg, 1400 mg QD, fed, Day 1, Table 5, nominal times): 904 ng/mL
half-life (1400 mg, 1400 mg QD, fed, Day 1, Table 5, nominal times, read-out: Half-life, geometric mean (CV%) (converted)): 4.1 h
Tmax (1400 mg, 1400 mg QD, fed, Day 1, Table 5, nominal times, read-out: Tmax, median (min-max)): 5 h
AUC [10]: 5670 ng·h/mL
Cmax [10]: 904 ng/mL
half-life (1400 mg, 1400 mg QD, fed, Day 1, Table 6, actual times after QC, read-out: Half-life, geometric mean (CV%) (converted)): 4.13 h
Tmax (1400 mg, 1400 mg QD, fed, Day 1, Table 6, actual times after QC, read-out: Tmax, median (min-max)): 5 h
Cmax (1400 mg, 1400 mg QD, fed, Day 8, Table 5, nominal times): 827 ng/mL
half-life (1400 mg, 1400 mg QD, fed, Day 8, Table 5, nominal times, read-out: Half-life, geometric mean (CV%) (converted)): 4.4 h
Tmax (1400 mg, 1400 mg QD, fed, Day 8, Table 5, nominal times, read-out: Tmax, median (min-max)): 5.86 h
AUC [11]: 5450 ng·h/mL
Cmax [11]: 827 ng/mL
half-life (1400 mg, 1400 mg QD, fed, Day 8, Table 6, actual times after QC, read-out: Half-life, geometric mean (CV%) (converted)): 4.75 h
Tmax (1400 mg, 1400 mg QD, fed, Day 8, Table 6, actual times after QC, read-out: Tmax, median (min-max)): 5.86 h
Cmax (2000 mg, 2000 mg QD, fed, Day 1, Table 5, nominal times): 525 ng/mL
half-life (2000 mg, 2000 mg QD, fed, Day 1, Table 5, nominal times, read-out: Half-life, geometric mean (CV%) (converted)): 5.5 h
Tmax (2000 mg, 2000 mg QD, fed, Day 1, Table 5, nominal times, read-out: Tmax, median (min-max)): 2 h
AUC [12]: 2950 ng·h/mL
Cmax [12]: 540 ng/mL
half-life (2000 mg, 2000 mg QD, fed, Day 1, Table 6, actual times after QC, read-out: Half-life, geometric mean (CV%) (converted)): 4.14 h
Tmax (2000 mg, 2000 mg QD, fed, Day 1, Table 6, actual times after QC, read-out: Tmax, median (min-max)): 2.1 h
Cmax (2000 mg, 2000 mg QD, fed, Day 8, Table 5, nominal times): 451 ng/mL
half-life (2000 mg, 2000 mg QD, fed, Day 8, Table 5, nominal times, read-out: Half-life, geometric mean (CV%) (converted)): 5.7 h
Tmax (2000 mg, 2000 mg QD, fed, Day 8, Table 5, nominal times, read-out: Tmax, median (min-max)): 2.5 h
AUC [13]: 2580 ng·h/mL
Cmax [13]: 502 ng/mL
half-life (2000 mg, 2000 mg QD, fed, Day 8, Table 6, actual times after QC, read-out: Half-life, geometric mean (CV%) (converted)): 4.98 h
Tmax (2000 mg, 2000 mg QD, fed, Day 8, Table 6, actual times after QC, read-out: Tmax, median (min-max)): 4 h
Tmax (fasted, read-out: median plasma tmax): 1 to 3 h
